From US7772183B2 (Bristol-Myers Squibb Company, priority 2005, dated 2010) come the findings set out here.

The target in test [1] is T1, HCV NS3/4A protease complex, H77 strain (Hepatitis C virus genotype 1a, UniProt P27958, C1454S/C1711G).
T1 construct: DNA encoding the recombinant HCV NS3/4A protease complex (amino acids 1027 to 1711) for these strains; inferred from the pET21b vector and Ni-NTA purification; made in house; host or cells: Escherichia coli BL21 (DE3), pET21b
Briefly: FRET peptide assay to monitor HCV NS3/4A proteolytic activity (H77 strain). In kind it is biochemical. From the text:
HCV NS3 protease complexes, derived from the BMS strain, H77 strain or J4L6S strain, were generated, as described below. These purified recombinant proteins were generated for use in a homogeneous assay (see below) to provide an indication of how effective compounds of the present disclosure would be in inhibiting HCV NS3 proteolytic activity.
Serum from an HCV-infected patient was obtained from Dr. T. Wright, San Francisco Hospital. An engineered full-length cDNA (compliment deoxyribonucleic acid) template of the HCV genome (BMS strain) was constructed from DNA fragments obtained by reverse transcription-PCR (RT-PCR) of serum RNA (ribonucleic acid) and using primers selected on the basis of homology between other genotype 1a strains. From the determination of the entire genome sequence, a genotype 1a was assigned to the HCV isolate according to the classification of Simmonds et al. (See P Simmonds, K A Rose, S Graham, S W Chan, F McOmish, B C Dow, E A Follett, P L Yap and H Marsden, J. Clin. Microbiol., 31(6), 1493-1503 (1993)). […]

The target in test [2] is T2, human neutrophil elastase (HNE) (Homo sapiens, UniProt P08246).
T2 construct: purchased Sigma or EMDbiosciences
T2 sequence (P08246 30-267): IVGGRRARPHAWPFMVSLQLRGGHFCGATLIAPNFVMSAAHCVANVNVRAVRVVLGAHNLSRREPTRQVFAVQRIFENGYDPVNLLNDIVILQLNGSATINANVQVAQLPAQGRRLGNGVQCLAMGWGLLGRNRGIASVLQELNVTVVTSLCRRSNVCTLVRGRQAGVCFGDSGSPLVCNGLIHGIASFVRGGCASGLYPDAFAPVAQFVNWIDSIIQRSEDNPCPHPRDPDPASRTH
As to the kind of experiment: Specificity assay, neutrophil elastase. The class given is biochemical. The note with it: read-out: HLE activity in the specificity assays. On the procedure: The specificities of compounds of the present disclosure were determined against a variety of serine proteases: human neutrophil elastase (HNE), porcine pancreatic elastase (PPE) and human pancreatic chymotrypsin and one cysteine protease: human liver cathepsin B. In all cases, a 96-well plate format protocol using colorimetric p-nitroaniline (pNA) substrate or fluorometric Amino-Methyl-Coumarin (AMC) substrate, specific for each enzyme was used as described previously (PCT Patent Application No. WO 00/09543) with some modifications. All enzymes were purchased from Sigma or EMDbiosciences while the substrates were from Bachem.
Each pNA assay included a 2 h enzyme-inhibitor pre-incubation at room temperature followed by addition of substrate and hydrolysis to ˜15% conversion as measured on a Spectramax Pro microplate reader. The cathepsin B assay was initiated by adding substrate to a 10 min enzyme-inhibitor pre-incubation at room temperature, and the assay plate measured immediately using the Cytofluor Series 4000. Compound concentrations varied from 100 to 0.4 μM depending on their potency.
The final conditions for each assay were as follows: […]
The percentage of inhibition was calculated using the formula: [1−((UVinh−UVblank)/(UVctl−UVblank))]×100 […]

T1 sequence (P27958 1027-1711 C1454S/C1711G, one chain of several): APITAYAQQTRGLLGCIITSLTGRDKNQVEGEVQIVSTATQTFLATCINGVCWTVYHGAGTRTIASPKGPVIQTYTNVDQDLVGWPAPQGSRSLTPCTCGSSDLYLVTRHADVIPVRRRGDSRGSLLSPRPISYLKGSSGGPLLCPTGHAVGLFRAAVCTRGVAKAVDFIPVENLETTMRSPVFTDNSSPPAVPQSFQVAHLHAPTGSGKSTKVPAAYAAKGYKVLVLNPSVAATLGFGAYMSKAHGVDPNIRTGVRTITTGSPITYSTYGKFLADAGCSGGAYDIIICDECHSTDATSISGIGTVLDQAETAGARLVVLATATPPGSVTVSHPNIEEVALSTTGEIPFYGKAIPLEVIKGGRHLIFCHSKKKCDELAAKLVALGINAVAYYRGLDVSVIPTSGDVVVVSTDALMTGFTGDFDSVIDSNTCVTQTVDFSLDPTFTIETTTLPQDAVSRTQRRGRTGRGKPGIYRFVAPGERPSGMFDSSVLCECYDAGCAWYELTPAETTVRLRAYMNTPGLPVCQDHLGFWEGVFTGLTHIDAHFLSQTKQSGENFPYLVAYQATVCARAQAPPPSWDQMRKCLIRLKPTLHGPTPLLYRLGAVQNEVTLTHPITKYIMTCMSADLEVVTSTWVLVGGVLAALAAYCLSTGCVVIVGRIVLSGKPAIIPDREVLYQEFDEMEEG

Consider `CC(C)(C)OC(=O)N[C@H]1CCCCC/C=C\[C@@H]2C[C@@]2(C(=O)NS(=O)(=O)C2CC2)NC(=O)[C@@H]2C[C@@H](OC(=O)c3ccc(C#N)cc3)CN2C1=O` [Compound 26, 18-(4-cyanobenzoyloxy)-14-tert-butoxycarbonylamino-4-cyclopropylsulfonylaminocarbonyl-2,15-dioxo-3,16-diazatricyclo-[14.3.0.0^4,6]-nonadec-7-ene], for which the IC50 in test [1] is 0.53 nM; in test [2], greater than 100000 nM.
